Measurements: PubChem BioAssay AID2060511 (Molecular Pharmacology Branch, DTP, NCI, 2025)
Where “and” joins values, the source holds several entries; their conditions need not be identical. Identical values can stand only once.

Tested on: 422866-222-R5-J1-PDC spheroids with HUVEC/MSC, viability
Test: Anticancer human tumor 422866-222-R5-J1-PDC patient-derived pancreatic adenocarcinoma cell line growth inhibition [GQUAD]
Settings: for viability, T/C: stronger effect = lower value
Source text: DNA G-quadruplex Stabilizer Agents in Combinations in Complex Spheroids
A high-throughput screen of multi-cell type tumor spheroids was designed to identify active combinations of DNA G-quadruplex stabilizer agents and targeted small molecules. Complex spheroids include a stromal component modeled by human endothelial cells (HUVEC) and fibroblasts modeled by human mesenchymal stem cells (MSCs). The concentration ranges selected for each drug and investigational agent were based upon clinically achievable concentrations if the clinical Cmax of the agent was known.
Compounds. The drugs and investigational agents: pidnarulex (CX-5461; NSC782164), APTO-253 (NSC789042), BRACO-19 (NSC847499), peposertib (NSC802822), ceralasertib (NSC780249), elimusertib (NSC800525), camonsertib (NSC841442), AZD-1390 (NSC803789), olaparib (NSC753686), talazoparib (NSC767125), ART-558 (NSC835418), sotorasib (NSC818433), MRTX-1133 (NSC836407), SN-38 (NSC673596), topotecan (NSC609699), etoposide (NSC141540), doxorubicin (NSC123127), gemcitabine (NSC613327), 5-fluorouracil (NSC19893), paclitaxel (NSC125973), vemurafenib (NSC761431), panobinostat (NSC761190), R-306465 (JNJ-16241199; NSC773264), adavosertib (NSC754352), TP-3654 (NSC805149), carboplatin (NSC241240), KSQ-4279 (NSC840948), and staurosporine (NSC755774) were obtained from the National Cancer Institute (NCI) Developmental Therapeutics Program Chemical Repository (34). The FDA-approved anticancer drug set is available from the NCI Developmental Therapeutics Program. […] The stock solutions were prepared in dimethyl sulfoxide (DMSO, Sigma-Aldrich, St. Louis, MO, cat. D2650) at 800-fold the tested concentration and stored at -70 degrees C prior to their use. All drugs and investigational agents were tested over a range starting from a high concentration at or near the clinical Cmax and decreasing in half-log increments. If the clinical Cmax for an agent had not been determined, the highest concentration tested was 10 microM.
2.3 Cell Culture. All cells were maintained in an incubator at 37 degrees C and 5% CO2 with 95% humidity. The PDC lines were cultured according to standard operating procedures established by the NCI PDMR. All PDCs were thawed and cultured in Matrigel-coated flasks prepared with a working solution of 1X Ham's F-12 nutrient mix, without supplementation (Invitrogen, cat. 11765054), 100 U/mL penicillin-streptomycin (Invitrogen, cat. 15140122), and 2.5% Matrigel (Corning Inc., cat. 354248) for the first three passages. The 857933-349-R-J2-PDC line was cultured in 6C/Colon 1B media, which includes advanced DMEM/F-12 (Thermo Fisher Scientific, cat. 12634028), 10 mM HEPES (Thermo Fisher Scientific, cat. 15630080), 1X GlutaMAX supplement (Thermo Fisher Scientific, cat. 35050061), 0.1 mg/mL primocin (InvivoGen, cat. ant-pm-2), 10% defined fetal bovine serum, heat inactivated (HyClone Laboratories Inc., cat. SH30070.03HI), 50% L-WRN conditioned media (ATCC, cat. CRL-3276), 1.25 mM N-Acetyl-L-cysteine (Sigma-Aldrich, cat. A9165), 10 mM nicotinamide (Sigma-Aldrich, cat. N0636), 1X B-27 supplement (Thermo Fisher Scientific, cat. 17504044), 1X N-2 supplement (Thermo Fisher Scientific, cat. 17502048), 10 microM Y-27632 dihydrochloride (Tocris Bioscience, cat. 1254), and 50 ng/mL human EGF recombinant protein (Thermo Fisher Scientific, cat. PHG0311). The 485176-168-R4-J1-PDC line was cultured in Panc media, which includes all 6C/Colon 1B media components plus 100 ng/mL human FGF-10 (Thermo Fisher Scientific, cat. 100-26), 500 nM SB-431542 (Selleckchem, cat. S1067), and gastrin (Tocris, cat. 3006).
[…]

[1] = curve of first compound, second compound 0.0316 µM
[2] = curve of first compound, second compound 0.1 µM
[3] = curve of first compound, second compound 0.316 µM
[4] = curve of first compound, second compound 1 µM
[5] = curve of first compound, second compound 3.16 µM
[6] = curve of first compound, second compound 10 µM
[7] = second compound 0.0316 µM, first compound 0.0316 µM
[8] = second compound 0.0316 µM, first compound 0.1 µM
[9] = second compound 0.0316 µM, first compound 0.316 µM
[10] = second compound 0.0316 µM, first compound 1 µM
[11] = second compound 0.0316 µM, first compound 3.16 µM
[12] = second compound 0.0316 µM, first compound 10 µM
[13] = second compound 0.1 µM, first compound 0.0316 µM
[14] = second compound 0.1 µM, first compound 0.1 µM
[15] = second compound 0.1 µM, first compound 0.316 µM
[16] = second compound 0.1 µM, first compound 1 µM
[17] = second compound 0.1 µM, first compound 3.16 µM
[18] = second compound 0.1 µM, first compound 10 µM
[19] = second compound 0.316 µM, first compound 0.0316 µM
[20] = second compound 0.316 µM, first compound 0.1 µM
[21] = second compound 0.316 µM, first compound 0.316 µM
[22] = second compound 0.316 µM, first compound 1 µM
[23] = second compound 0.316 µM, first compound 3.16 µM
[24] = second compound 0.316 µM, first compound 10 µM
[25] = second compound 1 µM, first compound 0.0316 µM
[26] = second compound 1 µM, first compound 0.1 µM
[27] = second compound 1 µM, first compound 0.316 µM
[28] = second compound 1 µM, first compound 1 µM
[29] = second compound 1 µM, first compound 3.16 µM
[30] = second compound 1 µM, first compound 10 µM
[31] = second compound 3.16 µM, first compound 0.0316 µM
[32] = second compound 3.16 µM, first compound 0.1 µM
[33] = second compound 3.16 µM, first compound 0.316 µM
[34] = second compound 3.16 µM, first compound 1 µM
[35] = second compound 3.16 µM, first compound 3.16 µM
[36] = second compound 3.16 µM, first compound 10 µM
[37] = second compound 10 µM, first compound 0.0316 µM
[38] = second compound 10 µM, first compound 0.1 µM
[39] = second compound 10 µM, first compound 0.316 µM
[40] = second compound 10 µM, first compound 1 µM
[41] = second compound 10 µM, first compound 3.16 µM
[42] = second compound 10 µM, first compound 10 µM
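Further: spheroids exposed to compounds for seven days before reading.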
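Wherever viability, T/C is given: percent viability relative to DMSO vehicle control taken as 100%.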

CC1COCCN1c1cc(C2(O)CC3CCC(C2)O3)c2cnn(-c3ccn[nH]3)c2n1 (stereo not drawn) + Cc1cnc(CNC(=O)c2c(=O)c3ccc(N4CCCN(C)CC4)nc3n3c2sc2ccccc23)cn1
IC50 [1]: > 10 µM | IC50 [2]: 0.0316 µM | IC50 [3]: > 10 µM | IC50 [4]: > 10 µM | IC50 [5]: 0.0316 µM | IC50 [6]: 0.0316 µM | viability, T/C [7]: 64.2% | viability, T/C [8]: 43.7% | viability, T/C [9]: 43.1% | viability, T/C [10]: 61.8% | viability, T/C [11]: 80.2% | viability, T/C [12]: 82.9% | viability, T/C [13]: 67.7% | viability, T/C [14]: 51% | viability, T/C [15]: 35.3% | viability, T/C [16]: 49.2% | viability, T/C [17]: 86.7% | viability, T/C [18]: 90.4% | viability, T/C [19]: 74.2% | viability, T/C [20]: 61.2% | viability, T/C [21]: 47.8% | viability, T/C [22]: 47.4% | viability, T/C [23]: 85.5% | viability, T/C [24]: 81.9% | viability, T/C [25]: 70.1% | viability, T/C [26]: 63.9% | viability, T/C [27]: 44.1% | viability, T/C [28]: 53.6% | viability, T/C [29]: 74.9% | viability, T/C [30]: 85.4% | viability, T/C [31]: 59.7% | viability, T/C [32]: 63.5% | viability, T/C [33]: 42.2% | viability, T/C [34]: 46.2% | viability, T/C [35]: 75.2% | viability, T/C [36]: 76% | viability, T/C [37]: 61.4% | viability, T/C [38]: 62.4% | viability, T/C [39]: 45.2% | viability, T/C [40]: 36.8% | viability, T/C [41]: 68.6% | viability, T/C [42]: 78.5%

O=C(NO)c1cnc(N2CCN(S(=O)(=O)c3ccc4ccccc4c3)CC2)nc1
viability, T/C (compound 0.0316 µM): 69.6% and 96.6% and 94.7% | viability, T/C (compound 0.1 µM): 70.9% and 105% and 90% | viability, T/C (compound 0.316 µM): 69.7% and 92.5% and 88.2% | viability, T/C (compound 1 µM): 67% and 52.3% and 58.2% | viability, T/C (compound 3.16 µM): 74.3% and 29.5% and 37.5% | IC50 (curve of compound): > 10 µM and 1.34 µM and 1.73 µM

Nc1ccn(C2OC(CO)C(O)C2(F)F)c(=O)n1 (stereo not drawn) + Cc1cnc(CNC(=O)c2c(=O)c3ccc(N4CCCN(C)CC4)nc3n3c2sc2ccccc23)cn1
IC50 [1]: 1.19 µM | IC50 [2]: > 10 µM | IC50 [3]: > 10 µM | IC50 [4]: > 10 µM | IC50 [5]: > 10 µM | IC50 [6]: > 10 µM | viability, T/C [7]: 86.7% | viability, T/C [8]: 67.8% | viability, T/C [9]: 69.1% | viability, T/C [10]: 47.2% | viability, T/C [11]: 41.9% | viability, T/C [12]: 43% | viability, T/C [13]: 85.6% | viability, T/C [14]: 87% | viability, T/C [15]: 70.7% | viability, T/C [16]: 48.6% | viability, T/C [17]: 50.8% | viability, T/C [18]: 54.8% | viability, T/C [19]: 96.5% | viability, T/C [20]: 81% | viability, T/C [21]: 70.3% | viability, T/C [22]: 62.3% | viability, T/C [23]: 54.1% | viability, T/C [24]: 58.1% | viability, T/C [25]: 78.2% | viability, T/C [26]: 72.7% | viability, T/C [27]: 74.3% | viability, T/C [28]: 69.2% | viability, T/C [29]: 68.3% | viability, T/C [30]: 63.4% | viability, T/C [31]: 70.5% | viability, T/C [32]: 88.6% | viability, T/C [33]: 72.4% | viability, T/C [34]: 79.8% | viability, T/C [35]: 71.2% | viability, T/C [36]: 58.4% | viability, T/C [37]: 84.9% | viability, T/C [38]: 78.4% | viability, T/C [39]: 89.5% | viability, T/C [40]: 79.2% | viability, T/C [41]: 67.2% | viability, T/C [42]: 63.4%

CCCS(=O)(=O)Nc1ccc(F)c(C(=O)c2c[nH]c3ncc(-c4ccc(Cl)cc4)cc23)c1F + Cc1cnc(CNC(=O)c2c(=O)c3ccc(N4CCCN(C)CC4)nc3n3c2sc2ccccc23)cn1
IC50 [1]: > 10 µM | IC50 [2]: > 10 µM | IC50 [3]: > 10 µM | IC50 [4]: > 10 µM | IC50 [5]: > 10 µM | IC50 [6]: > 10 µM | viability, T/C [7]: 96.8% | viability, T/C [8]: 89.2% | viability, T/C [9]: 117% | viability, T/C [10]: 109% | viability, T/C [11]: 145% | viability, T/C [12]: 54.9% | viability, T/C [13]: 93.9% | viability, T/C [14]: 87.3% | viability, T/C [15]: 115% | viability, T/C [16]: 92% | viability, T/C [17]: 109% | viability, T/C [18]: 84.7% | viability, T/C [19]: 78.6% | viability, T/C [20]: 90.4% | viability, T/C [21]: 90% | viability, T/C [22]: 115% | viability, T/C [23]: 102% | viability, T/C [24]: 86.6% | viability, T/C [25]: 73.2% | viability, T/C [26]: 80.7% | viability, T/C [27]: 87.2% | viability, T/C [28]: 110% | viability, T/C [29]: 111% | viability, T/C [30]: 86% | viability, T/C [31]: 72.9% | viability, T/C [32]: 80.9% | viability, T/C [33]: 85.5% | viability, T/C [34]: 93.7% | viability, T/C [35]: 95.1% | viability, T/C [36]: 88.7% | viability, T/C [37]: 69.2% | viability, T/C [38]: 76.2% | viability, T/C [39]: 109% | viability, T/C [40]: 86.8% | viability, T/C [41]: 96% | viability, T/C [42]: 94.2%

CC1COCCN1c1cc(-c2ccnn2C)c2ccnc(-c3ccn[nH]3)c2n1 (stereo not drawn)
viability, T/C (compound 0.0316 µM): 80.3% and 71.6% and 81.9% | viability, T/C (compound 0.1 µM): 63.1% and 61.5% and 48.7% | viability, T/C (compound 0.316 µM): 47.8% and 50% and 45.2% | viability, T/C (compound 1 µM): 45% and 40.2% and 45.6% | viability, T/C (compound 3.16 µM): 63.9% and 81.7% and 45% | viability, T/C (compound 10 µM): 81.2% and 80.8% and 88.8%
